Where two headings read alike, the source gives them in different places.
How the values were obtained:
[1] = system: HCV replicon (genotype 1b) in Huh7 cell line ET; experiment: microbe, parasite or virus in culture; format: cell-based, HCV genotype 1b; conditions: Hepatitis C virus
[2] = [3H]Thymidine incorporation assay (cell toxicity); conditions: human
[3] = system: HCV sub-genomic replicon of genotype 1a in replicon cell line W11.8; experiment: microbe, parasite or virus in culture; format: cell-based, HCV genotype 1a; conditions: Hepatitis C virus
From the text: This procedure below describes the HCV replicon assay using a Huh7 hepatoma cell line harboring a highly cell culture-adapted replicon (genotype 1b) (hereafter named cell line ET). The ET cells contained the highly cell culture-adapted replicon I389luc-ubi-neo/NS3-3′/5.1 construct that carried, in addition to the neomycin gene, an integrated copy to the firefly luciferase gene (Krieger, N; Lohmann, V; Bartenschlager, R. Enhancement of hepatitis C virus RNA replication by cell culture-adaptive mutations. J. Virol. 2001, 75, 4614-4624). A replicon cell line W11.8, containing the 1a genotype of HCV was also used. These two cell lines (genotype 1b and 1a) allowed measurement of RNA replication and translation by measuring luciferase activity (against genotype 1b) or by measuring the NS5A level using the ELISA assay (against genotype 1a). […] ET cell lines were maintained in cultures at a sub-confluent level (<85%). The culture media used for cell passaging consisted of DMEM (Gibco BRL Laboratories, Mississauga, ON, Canada) supplemented with 10% fetal bovine serum with 1% penicilin/streptomycin, 1% glutamine, 1% sodium pyruvate, 1% non-essential amino acids, and 180 µg/ml of G418 final concentration.
Replicon cell lines W11.8 containing a sub-genomic replicon of genotype 1a was used for the HCV Replicon Cell-Based detection using the ELISA. The RNA replication in presence of different drug concentrations was indirectly measured in these cell lines by the level of NS5A protein content upon drug treatment for four days. The NS5A is a non-structural protein of HCV and is used as marker of HCV replication in this assay.
For the treatment of the cells with the testing drug, Culture medium was removed from the 175 cm^2 T-flask by aspiration. Cell monolayer was rinsed with 10-20 mL of PBS 1× at room temperature. PBS was removed by aspiration. Cells were trypsinized using 3 mL of Trypsin (0.25%)/EDTA (0.1%) solution. Flasks were incubated at 37° C. (incubator) for 7 minutes. Complete medium (9 mL) without G418 is then added. Cell clumps were disrupted by pipetting up and down several times.
The cell suspension was then transferred to a 50 mL Falcon polypropylene tube. Cells were then counted several times using the haemocytometer. Cells were diluted at 50,000 cells/mL with complete DMEM without G418, then transferred into a sterile reservoir. Using a multichannel pipet, approximately 5,000 viable cells (100 μL) were plated per well in a white opaque 96-well microtiter plate. After an incubation period of 2-4 hours at 37° C. in a 5% CO2 incubator, compounds were added at various concentrations.
Drugs were resuspended in DMSO at a stock concentration of 100 mM or 10 mM. […] Then, drugs were diluted at twice the final concentration in the same medium (without G418) described earlier, in sterile 96-deep well plate and according to a particular template (see Appendix). One volume (100 μL) of each drug dilution was then added to each well that contains cells.
Sixteen wells were used as control (0% inhibition) without drug. Eight wells were used as background control (100% inhibition) containing 2 μM (final concentration) of the reference compound. […] Values from 100% inhibited wells were averaged and used as the background value. Cells are further incubated for 4 days at 37° C. in a 5% CO2 incubator.
For the measurement of NS5A protein content, following the incubation time of four days, the media was throwed into an appropriate waste container by inverting the plate. Any residual liquid was removed by tapping gently on absorbent paper several times. The plates were then washed once with 150 μL of PBS per well, and then incubated for 5 minutes at room temperature on a shaker (500 rpm).

[4] = Huh-7, read-out: HCV-Replicon-(Luci-ET) 1b_IC50
[5] = W11.8, read-out: HCV-Replicon-ELISA-1a IC50
[6] = Huh-7, 96 h, read-out: HCV-Replicon (Luci-ET)-1b_IC50
[7] = W11.8, 96 h, read-out: HCV-Replicon-ELISA-1a IC50

Compound | IC50 [1, 4] | CC50 at 72 h [2] | IC50 [3, 5] | IC50 [1, 6] | IC50 [3, 7]
COCC(C(=O)N(C)C)N(C(=O)C1CCC(C)CC1)c1cc(C#CC(C)C)sc1C(=O)O (stereo not drawn) [Compound 16] | < 100 nM | > 100000 nM | < 100 nM | – | –
CC[C@@H](C(=O)N1CCOC(C)C1)N(C(=O)C1CCC(C)CC1)c1cc(C#CC(C)(C)C)sc1C(=O)O (stereo partly drawn) [Compound 56] | < 100 nM | 10000 to 100000 nM | < 100 nM | – | –
COC[C@@H](C(=O)N1CCOCC1)N(C(=O)C1CCC(C)CC1)c1cc(C#CC(C)(C)C)sc1C(=O)O (stereo partly drawn) [Compound 23] | < 100 nM | > 100000 nM | < 100 nM | – | –
CN1CCCC[C@H](N(C(=O)c2ccc(Cl)cc2Cl)c2cc(C#CC(C)(C)C)sc2C(=O)O)C1=O [Compound 137, (S)-5-(3,3-Dimethylbut-1-ynyl)-3-[(2,4-dichlorobenzoyl)-N-(1-methyl-2-oxoazepan-3-yl)amino]-thiophene-2-carboxylic acid] | – | > 100000 nM | – | < 100 nM | < 100 nM
CC(C)(C)C#Cc1cc(N(CC(=O)N2CCOCC2)C(=O)c2ccc(Cl)cc2Cl)c(C(=O)O)s1 [Compound 124, 3-[(2,4-dichlorobenzoyl)-(2-morpholino-2-oxo-ethyl)amino]-5-(3,3-dimethylbut-1-ynyl)thiophene-2-carboxylic acid] | – | > 100000 nM | – | < 100 nM | < 100 nM
CC1CCC(C(=O)N(c2cc(C#CC(C)(C)C)sc2C(=O)O)[C@H]2CCN(C)C2=O)CC1 (single isomer, unassigned) [Compound 91] | < 100 nM | > 100000 nM | < 100 nM | – | –
CCN1CC[C@H](N(c2cc(C#CC(C)(C)C)sc2C(=O)O)C(=O)[C@H]2CC[C@H](C)CC2)C1=O [Compound 131, 5-(3,3-dimethylbut-1-ynyl)-3-[[(3S)-1-ethyl-2-oxo-pyrrolidin-3-yl]-(trans-4-methylcyclohexanecarbonyl)amino]thiophene-2-carboxylic acid] | – | > 100000 nM | – | < 100 nM | < 100 nM
CCN1CCC[C@H](N(c2cc(C#CC(C)(C)C)sc2C(=O)O)C(=O)[C@H]2CC[C@H](C)CC2)C1=O [Compound 148, (S)-5-(3,3-Dimethylbut-1-ynyl)-3-((trans)-4-methyl-N-(1-ethyl-2-oxopiperidin-3-yl)cyclohexanecarboxamido)thiophene-2-carboxylic acid] | – | > 100000 nM | – | < 100 nM | < 100 nM
CC[C@@H](C(=O)N1CC2CC1CO2)N(c1cc(C#CC(C)(C)C)sc1C(=O)O)C(=O)[C@H]1CC[C@H](C)CC1 (stereo partly drawn) [Compound 78] | < 100 nM | > 100000 nM | < 100 nM | – | –
CC1CCC(C(=O)N(c2cc(C#CC(C)(C)C)sc2C(=O)O)C2CCN(C)C2=O)CC1 (stereo not drawn) [Compound 83] | < 100 nM | > 100000 nM | < 100 nM | – | –
COCCN1CCCC[C@H](N(c2cc(C#CC(C)(C)C)sc2C(=O)O)C(=O)[C@H]2CC[C@H](C)CC2)C1=O [Compound 138, (S)-5-(3,3-Dimethylbut-1-ynyl)-3-((trans)-4-methyl-N-(1-(2-methoxyethyl)-2-oxoazepan-3-yl)cyclohexanecarboxamido)thiophene-2-carboxylic acid] | – | > 100000 nM | – | < 100 nM | < 100 nM
CCN(CC)C(=O)CN(c1cc(C#CC(C)(C)C)sc1C(=O)O)C(=O)[C@H]1CC[C@H](C)CC1 [Compound 17] | < 100 nM | > 100000 nM | < 100 nM | – | –
CN1CCOC[C@H](N(c2cc(C#CC(C)(C)C)sc2C(=O)O)C(=O)[C@H]2CC[C@H](C)CC2)C1=O [Compound 136, (S)-5-(3,3-Dimethylbut-1-ynyl)-3-[(trans)-4-methyl-N-(4-methyl-5-oxo-1,4-oxazepan-6-yl)cyclohexanecarboxamido]thiophene-2-carboxylic acid] | – | > 100000 nM | – | < 100 nM | < 100 nM
CC[C@@H](C(=O)N1C[C@@H]2C[C@H]1CO2)N(c1cc(C#CC(C)(C)C)sc1C(=O)O)C(=O)[C@H]1CC[C@H](C)CC1 [Compound 94] | < 100 nM | > 100000 nM | < 100 nM | – | –
COC[C@@H](C(=O)N1CCCC1)N(C(=O)C1CCC(C)CC1)c1cc(C#CC(C)(C)C)sc1C(=O)O (stereo partly drawn) [Compound 35] | < 100 nM | 10000 to 100000 nM | < 100 nM | – | –
CC1CCC(C(=O)N(CCC(=O)N(C)C)c2cc(C#CC(C)(C)C)sc2C(=O)O)CC1 (stereo not drawn) [Compound 98] | < 100 nM | > 100000 nM | 100 to 1000 nM | – | –
COCC[C@@H](C(=O)N1CCOCC1)N(C(=O)C1CCC(C)CC1)c1cc(C#CC(C)(C)C)sc1C(=O)O (stereo partly drawn) [Compound 61] | < 100 nM | > 100000 nM | < 100 nM | – | –
CCC[C@@H](C(=O)N1CCOCC1)N(C(=O)C1CCC(C)CC1)c1cc(C#CC(C)(C)C)sc1C(=O)O (stereo partly drawn) [Compound 64] | < 100 nM | 10000 to 100000 nM | < 100 nM | – | –
CN(C)C(=O)CN(C(=O)c1ccc(Cl)cc1Cl)c1cc(C#CC(C)(C)C)sc1C(=O)O [Compound 4, 3-[(2,4-Dichloro-benzoyl)-dimethylcarbamoylmethyl-amino]-5-(3,3-dimethyl-but-1-ynyl)-thiophene-2-carboxylic acid] | < 100 nM | 10000 to 100000 nM | 100 to 1000 nM | – | –
CC[C@@H](C(=O)N1CC(OC)C1)N(c1cc(C#CC(C)(C)C)sc1C(=O)O)C(=O)[C@H]1CC[C@H](C)CC1 [Compound 79] | < 100 nM | > 100000 nM | < 100 nM | – | –
CCN1CCCC[C@H](N(c2cc(C#CC(C)(C)C)sc2C(=O)O)C(=O)[C@H]2CC[C@H](C)CC2)C1=O [Compound 134, (S)-5-(3,3-Dimethylbut-1-ynyl)-3-((trans)-4-methyl-N-(1-ethyl-2-oxoazepan-3-yl)cyclohexanecarboxamido)thiophene-2-carboxylic acid] | – | 10000 to 100000 nM | – | < 100 nM | < 100 nM
CC(C)(C)C#Cc1cc(N(CC(=O)N2CCOCC2)C(=O)[C@H]2CC[C@H](C)CC2)c(C(=O)O)s1 [Compound 14] | < 100 nM | > 100000 nM | < 100 nM | – | –
CN1CCC[C@H](N(C(=O)c2ccc(Cl)cc2Cl)c2cc(C#CC(C)(C)C)sc2C(=O)O)C1=O [Compound 140, (S)-5-(3,3-Dimethylbut-1-ynyl)-3-[(2,4-dichlorobenzoyl)-N-(1-methyl-2-oxopiperidin-3-yl)amino]-thiophene-2-carboxylic acid] | – | > 100000 nM | – | < 100 nM | < 100 nM
CC(C)(C)C#Cc1cc(N(CC(=O)N2CCCC2)C(=O)[C@H]2CC[C@H](C)CC2)c(C(=O)O)s1 [Compound 6, 5-(3,3-Dimethyl-but-1-ynyl)-3-[(trans-4-methyl-cyclohexanecarbonyl)-(2-oxo-2-pyrrolidin-1-yl-ethyl)-amino]-thiophene-2-carboxylic acid] | < 100 nM | > 100000 nM | < 100 nM | – | –
CC[C@@H](C(=O)N1CCOCC1)N(c1cc(C#CC(C)(C)C)sc1C(=O)O)C(=O)[C@H]1CC[C@H](C)CC1 [Compound 12] | < 100 nM | 10000 to 100000 nM | < 100 nM | – | –

Source: patent US20130190289A1, “COMPOUNDS AND METHODS FOR THE TREATMENT OR PREVENTION OF FLAVIVIRUS INFECTIONS” (priority 2010, published 2013)
